Assay results reported in patent EP0272929B1, “Enkephalinase for therapeutic use” (GENENTECH, INC., priority 1986, dated 1988).
Like-named read-outs stand apart in the source and are kept apart here.

How the values were obtained:
[1] = system: ferret tracheal smooth muscle; experiment: Isometric tension of isolated tracheal smooth muscle rings (contraction by peptides, effect of inhibitors); type: cell-based
Description: (§1) Twenty-seven ferrets were anesthetized with pentobarbital sodium (45-60 mg/kg, i.p.), and the trachea were removed. Transverse rings (8 mm long) were cut from the trachea and mounted in glass chambers filled with 14 ml of Krebs-Henseleit solution of the following composition (in mMoles/L): NaCl 118, KCl 5.9, CaCl₂ 2.5, MgSO₄ 1.2, NaH₂PO4 1.2, NaHCO₃ 25.5, glucose 5.6, 0.1% bovine serum albumin, and penicillin-streptomycin (100 Units/ml). The soluiton was maintained at 37°C and was aerated continuously in a mixture of 95% O₂-5% CO₂, which produced a pH of 7.4. Six tracheal rings were studied concurrently.
(§2) The tracheal rings were connected to strain gauges (Grass FT03) for continuous recording of isometric tension, and the rings were placed between two rectangular platinum electrodes (6 x 40 mm) for electrical field stimulation. The rings were initially stretched to a tension of 20 g for 30 seconds and were then allowed to equilibrate for 1 hour while resting tension was adjusted to 4 g (Skoogh, B-E. et al., J. Appl. Physiol. 53: 253-257 [1982]). During equilibration, the medium was changed every 15 minutes. […] Id.
The responsiveness to substance P (using concentrations ranging from 10⁻⁸ M to 10⁻⁵ M) and to leu-thiorphan and cumulative dose-response curves to substance P (Peninsula Labs) were obtained. Each succeeding concentration of substance P was added after contraction reached a plateau. After completion of the first dose-response curve to substance P, leu-thiorphan (10⁻⁵ M, Squibb Pharmaceutical) was added to the organ bath. Following a 15 minute incubation, a second dose-response curve to substance P was obtained.
The N-terminal fragment, substance P₁₋₉ was studied because enkephalinase cleaves substance P between the 9 and 10 positions (Matsas, R. et al., Proc. Natl. Acad. Sci. [USA] 80: 3111-3115 [1983]), generating that fragment. (10⁻⁵ M Peninsula Labs). Experiments were also carried out with (DPro², DTrp^7,9)-substance P (10⁻⁵ M) (Peninsula Labs), a substance P antagonist (Hakanson, R. et al., Br. J. Pharmac. 77: 697-700 [1982]) by adding the antagonist after the response to substance P (10⁻⁶ M) and leu-thiorphan (10⁻⁵ M) reached a plateau.
Data were expressed as mean ± SE. For the dose-response curves to substance P, the means between two groups at each concentration were compared by a paired t test. For the studies of electrical field stimulation, responses were compared by one way analysis of variance and Newman-Keuls multiple range test. Significance was accepted at P < 0.05. […]

[2] = system: ferret tracheal smooth muscle; experiment: Electrical field stimulation-induced contraction of isolated tracheal smooth muscle; type: cell-based; conditions: inhibitor 10⁻⁵ M, 15 min; tachykinins 10⁻⁷ M
Description: as §2
Increasing concentrations of leu-thiorphan (10⁻¹¹ to 10⁻⁴ M) were added and the stimuli repeated to determine whether leu-thiorphan modulated electrical field stimulation-induced contractions. […] After determining control responses to electrical field stimulation (5 Hz), leu-thiorphan (10⁻⁵ M; 15 min) was added, the stimulus repeated, (DPro²,DTrp^7,9)substance P, the substance P antagonist (10⁻⁵ M; 15 min; Peninisula Labs) was added, and the stimulus was repeated.
(§3) Data were expressed as mean ± SE. For the dose-response curves to tachykinins the means between two groups at each concentration were analyzed by an unpaired t test. For the study of electrical field stimulation, responses were compared by one way analysis of variance and Newman-Keuls multiple range test. Significance was accepted at p<0.05.

ferret trachea [3] = experiment: Mucus secretion from ferret tracheal segments in Ussing-type chambers (release of 35SO4-labeled macromolecules, flux of bound SO4); type: cell-based; conditions: for potentiation of substance P-induced secretion: 10 µg/ml each, bestatin 10⁻⁵M (Fig. 4)
Description: (§4) Mucus secretion from tracheal segments of 36 ferrets was measured using methods described earlier (Borson, D.B. et al., J. Appl. Physiol. 57: 457-466 [1984]). Briefly, after anesthetizing adult male ferrets weighing 1-2 kg with sodium pentobarbital (45-60 mg/kg, ip), the trachea was removed and washed in medium 199/Earles HCO₃ bubbled with 95% O₂ - 5% CO₂ at 38°C. Tracheal segments were mounted in plastic Ussing-type chambers connected to perfusion chambers made of siliconized glass (MRA Inc., Clearwater, Florida). After exposing both sides to medium 199, 0.167 mCi Na₂.³⁵SO₄ was added to the submucosal side. At 15 minute intervals, the medium was drained from the luminal side and replaced with fresh unlabeled medium. Each sample was placed in dialysis tubing (Spectropore no. D1615-1; MW cutoff: 12-14,000) and exhaustively dialyzed with the rest of the samples from the experiment against at least 6 changes of distilled water (4 liters each) containing excess unlabeled SO₄ and sodium azide (10 mg/L) to prevent bacterial degradation of the macromolecules. After dialysis, the bound radioactivity of each sample was determined using a Beckman Instruments beta counter (model LS 7500). Molecular weight profiles of the materials secreted were determined by first desalting samples using a Sephadex G-50 column, then concentrating carbohydrate-containing molecules on DEAE Sephacel, and determining apparent molecular size under denaturing conditions (4 M guanidine, 10mM 2-mercaptoethanol, 0.1% Triton X-100) using a Sepharose CL-6B column.
(§5) Characteristics of the response to substance P including the time course, concentration dependence, and reproducibility were studied. Tracheal segments from 8 ferrets were incubated in the presence of radiolabel for 3 hours to which were added different concentrations of substance P (10⁻⁹M to 10⁻⁵M; Peninisula Labs, Belmont, CA). […] All treatments were randomized with regard to the site of sampling in the trachea to eliminate systematic bias.
(§6) The effects of endogenous proteinases were studied by incubating at least two tissues from each of 4 ferrets for 30 minutes in medium for 2.5 hours and adding a combination of nine (9) proteinase inhibitors to the submucosal side of each tissue (10 µg/mL each). The inhibitors used included leupeptin, antipain, pepstatin A, thiorphan, substance P₁₋₉ (Growcott, J.W. and Tarpey, A.V. Eur. J. Pharm. 84: 107-109 [1982]) and the angiotensin converting enzyme inhibitor, teprotide (Peninsula labs), aprotonin, BSA, and bacitracin (Sigma). Thirty minutes after addition of inhibitor, substance P (10⁻⁶M) was added to the submucosal side. […] The mean responses to substance P in the presence of inhibitors was compared with the mean responses of two control segments from each of the same animals.
(§7) The concentration-dependence of enkephalinase inhibition was explored by adding thiorphan in different concentrations to different tissues. To determine whether the secretory effect of substance P might be mediated indirectly via the release of endogenous enkephalins, we tested the effects of met-enkephalin (Peninsula Labs) on secretory responses.
(§8) We calculated the flux of bound SO₄ (^JSO₄) from the cpm in the dialyzed samples according to the equation modified from (Corrales, R.J. et al., J. Appl. Physiol. 56: 1076-1082 [1985]): ()^J SO4 (pmol SO4 (/cm)^2 /h) =(((cpm recovered/15 min x 4) x (811 x 10)^6 pmol cold SO4 /5mL))/((0.5 cm)^2 x cpm in 5.0 mL of hot-side medium) [formula]

neutrophils = experiment: Neutrophil chemotaxis assay (Chemotaxis kit, 5 µm filter); type: cell-based; conditions: Homo sapiens, Formyl Met-Leu-Phe 1µM + inhibitor 10µM, 1 hr at 37°C, read-out: Neutrophil Migration (% control)
Description: As assay was used to test the effects of enkephalinase on neutrophil chemotaxis. A commercially available chemotactic assay (Chemotaxis kit, Neuroprobe, Cabin John, Md) was used and modified as described below. Neutrophils were isolated by sedimentation over dextran from peripheral blood of human donors. A sample of neutrophils is placed over a 5 µm filter in a chemotaxis chamber containing aliquots of test material. Three to six replicates were run for each test for 1 hr. at 37°C. The number of migrating neutrophils in each chamber is then counted. The chemotactic potential is evaluated by the number of cells in five selected unit areas.
Various specific inhibitors of enkephalinase were used to determine the role of enkephalinase in chemotaxis of neutrophils. Chemotactic activity is reported as the total number of neutrophils observed in five fields of the kit membrane under 100X magnification. Thus, the larger the number the more chemotactic was a particular test composition.

ferret trachea [4] = conditions: for potentiation of substance P-induced secretion: substance P 10⁻⁶M; for order of potency for stimulation of secretion: each tachykinin 10⁻⁵M
Description: as §4, §5, §6, §7, §8

[5] = system: ferret tracheal smooth muscle; experiment: Isometric tension of isolated tracheal smooth muscle rings (contraction by peptides, effect of inhibitors); type: cell-based; remark: listed apart in the source
Description: as §1
as §2, with “Id. […]” for “Id.”
The methods used to excise tracheal tissue, mount and electrically stimulate the tissue were identical to those described above. The responses to tachykinins and to leu-thiorphan, cumulative dose-response curves to substance P (Peninsula Labs), neurokinin A (Peninisula Labs) and neurokinin B (Peninsula Labs) were obtained using concentrations ranging from 10⁻¹¹ M to 10⁻⁵ M in the presence and absence of leu-thiorphan (10⁻⁵ M, 15 min; Squibb Pharmaceutical). Each succeeding concentration of tachykinin was added after the previous contraction had reached a plateau.
as §3
The methods used were the same as those described in Example 7.

[6] = inhibitor 10⁻⁴M, substance P 10⁻⁶M
[7] = presence of phosphoramidon 10⁻⁵M

## CN1[C@@H]2CC[C@H]1C[C@@H](OC(=O)C(CO)c1ccccc1)C2 (some centres unmarked) [atropine]
[1]
  effect on SP plus leu-thiorphan-induced contractions: decreased SP plus leu-thiorphan-induced contractions significantly

## CC(C)C[C@H](NC(=O)[C@@H](O)[C@H](N)Cc1ccccc1)C(=O)O [bestatin]
[2]
  potentiation of the response to electrical field stimulation in the presence of substance P, neurokinin A or neurokinin B: did not
Ferret trachea [3]; substance P 10⁻⁶M
  potentiation of substance P-induced secretion: failed to potentiate substance P-induced secretion

## C[C@H](CS)C(=O)N1CCC[C@H]1C(=O)O [captopril]
[2]
  potentiation of the response to electrical field stimulation in the presence of substance P, neurokinin A or neurokinin B: did not
Ferret trachea [3]; Mustela putorius, inhibitor 10⁻⁴M (Fig. 4), substance P 10⁻⁶M, not significantly different from control, read-out: potentiation of substance P-induced secretion
  activation at 100 µM: 44 ± 27%

## CC(=O)N[C@@H](CC(C)C)C(=O)N[C@@H](CC(C)C)C(=O)N[C@H](C=O)CCCNC(=N)N [leupeptin]
[2]
  potentiation of the response to electrical field stimulation in the presence of substance P, neurokinin A or neurokinin B: did not
Ferret trachea [3]; substance P 10⁻⁶M
  potentiation of substance P-induced secretion: failed to potentiate substance P-induced secretion

## CC(C)C[C@H](NP(=O)(O)O[C@@H]1O[C@@H](C)[C@H](O)[C@@H](O)[C@H]1O)C(=O)N[C@@H](Cc1c[nH]c2ccccc12)C(=O)O [phosphoramidon]
neutrophils
  activity at 10 µM: 65%
Ferret trachea [3]; 10⁻⁵M, 30 min pretreatment, tachykinins 10⁻⁵M
  effect on secretory responses to each tachykinin: significantly increased
Ferret trachea [3]; inhibitor 10⁻⁵M, substance P 10⁻⁶M
  substance P-induced increase in flux in inhibitor-treated tissues: 357 ± 91.9 pmol bound SO₄/cm²/h

## CSCC[C@H](NC(=O)[C@H](CC(C)C)NC(=O)CNC(=O)[C@H](Cc1ccccc1)NC(=O)[C@H](Cc1ccccc1)NC(=O)[C@H](CCC(N)=O)NC(=O)[C@H](CCC(N)=O)NC(=O)[C@@H]1CCCN1C(=O)[C@H](CCCCN)NC(=O)[C@@H]1CCCN1C(=O)[C@@H](N)CCCNC(=N)N)C(N)=O [substance P]
Ferret trachea [4]; 10 µM
  flux of bound SO₄ above the pre-stimulus baseline: 155 ± 42%

## O=C(O)CNC(=O)C(CS)Cc1ccccc1 (centres unmarked) [thiorphan]
neutrophils
  activity at 10 µM: 29 ± 19%
Ferret trachea [3]; 10⁻⁴M, submucosal side
  increase in flux of bound SO₄ by the inhibitor by itself: 57 ± 17.8 pmol bound SO₄/cm²/h
Ferret trachea [3]; Mustela putorius, substance P 10⁻⁶M, read-out: threshold of potentiation of the secretory response to substance P
  minimal effective concentration: ~0.01 µM
Ferret trachea [3]; [6]
  response to substance P, % of control: 502 ± 147%
  substance P-induced increase in flux of bound SO₄ in inhibitor-pretreated tissue: 268.0 ± 58.0 pmol/cm²/h
Ferret trachea [3]; test of additivity
  sum of the individual effects as % of the response to substance P in the presence of the inhibitor: 51%
  sum of the individual effects of substance P and inhibitor: 136.2 pmol bound SO₄/cm²/h

## bacitracin
Ferret trachea [4]; 10 µg/ml each, bestatin 10⁻⁵M (Fig. 4)
  potentiation of substance P-induced secretion: failed to potentiate substance P-induced secretion

## bradykinin (RPPGFSPFR; Bradykinin; UniProt P01042 381-389, looked up)
[5]; 10⁻¹¹ to 10⁻⁵ M
  contraction: caused contraction in a dose-dependent fashion
[5]; absence of enkephalinase inhibitors
  relative contractile potency: more potent that lys-bradykinin
[5]; presence of Leu-thiorphan
  relative contractile potency: equally potent

## eledoisin
Ferret trachea [4]; absence of phosphoramidon
  order of potency for stimulation of secretion: substance P> physalaemin=eledoisin=kassinin > neurokinin A
Ferret trachea [4]; [7]
  order of potency for stimulation of secretion: Substance P=neurokinin A=physalaemin=eledoisin=kassinin>neurokinin B

## kassinin
Ferret trachea [4]; absence of phosphoramidon
  order of potency for stimulation of secretion: substance P> physalaemin=eledoisin=kassinin > neurokinin A
Ferret trachea [4]; [7]
  order of potency for stimulation of secretion: Substance P=neurokinin A=physalaemin=eledoisin=kassinin>neurokinin B

## physalaemin
Ferret trachea [4]; absence of phosphoramidon
  order of potency for stimulation of secretion: substance P> physalaemin=eledoisin=kassinin > neurokinin A
Ferret trachea [4]; [7]
  order of potency for stimulation of secretion: Substance P=neurokinin A=physalaemin=eledoisin=kassinin>neurokinin B

## teprotide
Ferret trachea [4]; inhibitor 10⁻⁴M (Fig. 4), not significantly different from control
  potentiation of substance P-induced secretion: 49 ± 39%
